Test results from patent US5242943A, “3-aminopropoxyphenyl derivatives, their preparation and pharmaceutical compositions containing them” (Louis; William J., priority 1984, dated 1993).

Columns and labels:
[1] = tested on: tracheal muscle; experiment: Tracheal preparations of the guinea pig, blockade of isoproterenol relaxation; assay type: cell-based; conditions: for blocking effect of the responses to isoproterenol in the trachea: at concentrations as high as 3×10^-5 mol/l; for selectivity for the cardiac beta 1 adrenoceptor: atria vs trachea, in words
[2] = target: T1, beta adrenoceptor (Cavia porcellus, UniProt H0W3H1); experiment: Inhibition of the positive chronotropic isoproterenol effect in spontaneously beating guinea pig atrium; assay type: cell-based
T1 construct: in the spontaneously beating guinea pig atrium; from tissue; host or cells: guinea pig atrium

[3] = target: T2, beta-1 adrenoceptor (Rattus norvegicus, UniProt P18090); experiment: Inhibition of isoproterenol induced tachycardia in the pithed rat; assay type: in vivo; conditions: read-out: Effective Dose (ID50)
T2 construct: from tissue; host or cells: heart of the pithed rat, in vivo

[4] = tested on: cardiac contractile force; experiment: Cardiac contractile force in anaesthetised, vagotomized, spinalised cat; assay type: in vivo; conditions: in words
Experimental: In the anaesthetised, vagotomized cat spinalised at the level of second cervical vertebrae the compounds exert an increase in cardiac contractile force at a dose of from about 20 to about 2,500 ug/kg i.v. as measured with a strain gauge arch sewn into the left ventricle. The effect may also be measured as a concentration dependent stimulation of the isolated spontaneously beating guinea pig atrium.

T1 sequence (H0W3H1 1-470): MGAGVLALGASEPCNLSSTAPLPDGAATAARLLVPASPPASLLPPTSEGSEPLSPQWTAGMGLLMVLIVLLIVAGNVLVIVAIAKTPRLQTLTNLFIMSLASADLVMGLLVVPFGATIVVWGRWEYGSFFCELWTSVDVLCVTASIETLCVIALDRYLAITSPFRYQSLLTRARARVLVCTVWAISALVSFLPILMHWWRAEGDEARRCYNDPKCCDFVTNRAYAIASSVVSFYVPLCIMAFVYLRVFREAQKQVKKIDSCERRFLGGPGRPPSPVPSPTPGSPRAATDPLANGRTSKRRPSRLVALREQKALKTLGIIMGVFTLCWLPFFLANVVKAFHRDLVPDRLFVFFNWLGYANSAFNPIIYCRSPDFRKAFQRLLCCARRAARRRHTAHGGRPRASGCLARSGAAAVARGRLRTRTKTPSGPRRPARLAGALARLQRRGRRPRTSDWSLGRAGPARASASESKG
T2 sequence (P18090 whole entry): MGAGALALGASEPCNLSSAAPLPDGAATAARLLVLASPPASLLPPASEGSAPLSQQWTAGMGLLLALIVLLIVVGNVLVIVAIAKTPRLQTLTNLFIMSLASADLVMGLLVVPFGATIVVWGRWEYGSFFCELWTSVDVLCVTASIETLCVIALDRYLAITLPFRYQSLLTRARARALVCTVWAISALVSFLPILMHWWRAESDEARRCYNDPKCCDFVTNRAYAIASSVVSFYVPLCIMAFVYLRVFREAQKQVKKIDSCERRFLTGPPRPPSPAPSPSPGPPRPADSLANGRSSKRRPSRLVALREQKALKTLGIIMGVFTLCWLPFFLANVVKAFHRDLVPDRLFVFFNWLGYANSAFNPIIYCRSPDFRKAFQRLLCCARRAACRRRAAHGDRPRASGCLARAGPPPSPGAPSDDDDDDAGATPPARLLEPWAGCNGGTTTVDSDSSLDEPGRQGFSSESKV

Row | Structure (SMILES) | Kb [2] [µM] | ED50 [3] [mg/kg] | selectivity ([1]; guinea pig atria vs trachea, known selective beta adrenoceptor blockers) | blocking effect of the responses to isoproterenol in the trachea [1] | selectivity for the cardiac beta 1 adrenoceptor [1] | balance between the agonistic and antagonistic activities [4]
1 | CC(C)NCC(O)COc1ccc(CC(N)=O)cc1 (centres unmarked) [Atenolol, reference compound] |  |  | 20 |  |  | 
2 | Cc1cc(OCCOCC2CC2)ccc1OCC(O)CNCCNC(=O)C1CCOCC1 (centres unmarked) [Example 1, 1-(2-Methyl-4-(2-cyclopropylmethoxyethoxy)-phenoxy)-3-(2-(tetrahydropyran-4-yl-carbonylamino)ethylamino)-2-propanol] | 0.12 | 0.1 |  |  |  | 
3 | CCCOCCOc1ccc(OCC(O)CNCCNC(=O)C2CCOCC2)c(F)c1 (centres unmarked) [Example 2, 1-(2-fluoro-4-(2-propoxy-ethoxy)phenoxy)-3-(2-(tetrahydropyran-4-yl-carbonylamino)ethylamino)-2-propanol] | 0.05 | 0.02 |  | no blocking effect | virtually absolute selectivity | 
4 | O=C(NCCNCC(O)COc1ccc(OCCOCC2CCCC2)cc1)C1CCOCC1 (centres unmarked) [Example 5] | 0.03 | 0.03 |  | no blocking effect | virtually absolute selectivity | 
5 | CCCOCCOc1ccc(OC[C@@H](O)CNC(C)CNC(=O)C2CCOCC2)cc1 (stereo partly drawn) [Example 9, (S)-1-(4-(2-propoxyethoxy)phenoxy)-3((R,S)-2-(tetrahydropyran-4-ylcarbonylamino)-1-methylethylamino)-2-propanol] | 0.04 | 0.003 |  |  |  | particularly favourable
6 | CCCOCCOc1ccc(OC[C@@H](O)CN[C@@H](C)CNC(=O)C2CCOCC2)cc1 [Example 11, (S)-1-(4-(2-propoxyethoxy)phenoxy)-3-((S)-2-(tetrahydropyran-4-yl-carbonylamino)-1-methylethylamino)-2-propanol] | 0.16 | 0.02 |  |  |  | 
7 | C[C@H](CNC(=O)C1CCOCC1)NCC(O)COc1ccc(OCCOCC2CCCC2)cc1 (some centres unmarked) [Example 15] | 0.03 | 0.01 |  | no blocking effect | virtually absolute selectivity | 
8 | CC(C)COCCOc1ccc(OCC(O)CN[C@H](C)CNC(=O)C2CCOCC2)cc1 (some centres unmarked) [Example 21] | 0.07 | 0.005 |  |  |  | 
9 | O=C(NCCNCC(O)COc1ccc(O)cc1F)C1CCOCC1 (centres unmarked) [Example 33, 1-(2-fluoro-4-hydroxyphenoxy)-3-[2-(tetrahydropyran-4-ylcarbonylamino)ethylamino]-2-propanol] |  |  |  |  |  | particularly favourable

More lines, main results first:

Row | Kb [2] [µM] | ED50 [3] [mg/kg] | Structure (SMILES) | selectivity ([1]; guinea pig atria vs trachea, known selective beta adrenoceptor blockers) | blocking effect of the responses to isoproterenol in the trachea [1] | selectivity for the cardiac beta 1 adrenoceptor [1] | balance between the agonistic and antagonistic activities [4]
10 | 0.08 | 0.015 | CCCOCCOc1ccc(OCC(O)CNCCNC(=O)C2CCOCC2)cc1 (centres unmarked) [Example 3] |  | no blocking effect | virtually absolute selectivity | 
11 | 0.05 | 0.02 | CC(C)COCCOc1ccc(OCC(O)CNCCNC(=O)C2CCOCC2)cc1 (centres unmarked) [Example 4] |  | no blocking effect | virtually absolute selectivity | 
12 | 0.02 | 0.03 | O=C(NCCNCC(O)COc1ccc(OCCOCCc2ccc(F)cc2)cc1)C1CCOCC1 (centres unmarked) [Example 6] |  | no blocking effect | virtually absolute selectivity | 
13 | 0.2 | 0.02 | O=C(NCCNCC(O)COc1ccc(OCCOCc2ccc(F)cc2)cc1)C1CCOCC1 (centres unmarked) [Example 7] |  |  |  | 
14 | 0.07 | 0.02 | CCCOCCOc1ccc(OCC(O)CNCCNC(=O)C2CCOCC2)c(C#N)c1 (centres unmarked) [Example 8] |  |  |  | 
15 | 0.03 | 0.0006 | CCCOCCOc1ccc(OC[C@@H](O)CN[C@H](C)CNC(=O)C2CCOCC2)cc1 [Example 10, (S)-1-(4-(2-propoxyethoxy)phenoxy)-((R)-2-(tetrahydropyran-4-ylcarbonylamino)-1-methylethylamino)-2-propanol] |  |  |  | 
